According to the CheMixHub viscosity set:

Assay: xn = mol fraction of the nth substance listed

ClC(Cl)(Cl)Cl + CCCCCC
298.15 K, 101 kPa
Settings | viscosity [mPa·s]
x1 = 0.1 | 0.3171
x1 = 0.1729 | 0.3422
x1 = 0.2 | 0.3432
x1 = 0.3 | 0.3743
x1 = 0.3869 | 0.4102
x1 = 0.4 | 0.4105
x1 = 0.5 | 0.4532
x1 = 0.5869 | 0.5067
x1 = 0.6 | 0.5052
x1 = 0.7 | 0.5705
x1 = 0.7906 | 0.6461
x1 = 0.8 | 0.6544
x1 = 0.9 | 0.7635

ClC(Cl)(Cl)Cl + Cc1ccccc1C
298.15 K, 101 kPa
Settings | viscosity [mPa·s]
x1 = 0.0656 | 0.722
x1 = 0.2424 | 0.636
x1 = 0.4464 | 0.606
x1 = 0.5536 | 0.628
x1 = 0.5803 | 0.639
x1 = 0.6341 | 0.666
x1 = 0.793 | 0.772
x1 = 0.9312 | 0.872

CCOC(=O)c1ccccc1O + CS(C)=O
303.15 K, 101 kPa
Settings | viscosity [mPa·s]
x1 = 0.0499 | 1.888
x1 = 0.1687 | 2.196
x1 = 0.2404 | 2.294
x1 = 0.3226 | 2.533
x1 = 0.4179 | 2.57
x1 = 0.5265 | 2.723
x1 = 0.6564 | 2.843

ClC(Cl)(Cl)Cl + C1CCCCC1
Settings | viscosity [mPa·s]
298 K, 101 kPa, x1 = 0.2753 | 0.8903
298 K, 101 kPa, x1 = 0.3845 | 0.8916
298 K, 101 kPa, x1 = 0.4418 | 0.8924
298 K, 101 kPa, x1 = 0.4727 | 0.8928
298 K, 101 kPa, x1 = 0.58 | 0.8943
298 K, 101 kPa, x1 = 0.6707 | 0.8955
298 K, 101 kPa, x1 = 0.6805 | 0.8956
298 K, 101 kPa, x1 = 0.7701 | 0.8969
298 K, 101 kPa, x1 = 0.864 | 0.8982
298 K, 101.3 kPa, x1 = 0.1774 | 0.847
298 K, 101.3 kPa, x1 = 0.3265 | 0.831
298 K, 101.3 kPa, x1 = 0.5278 | 0.836
298 K, 101.3 kPa, x1 = 0.6746 | 0.844
298 K, 101.3 kPa, x1 = 0.8521 | 0.86
298.15 K, 101 kPa, x1 = 0.272 | 0.858
298.15 K, 101 kPa, x1 = 0.5295 | 0.8568
298.15 K, 101 kPa, x1 = 0.7707 | 0.867
298.15 K, 101.33 kPa, x1 = 0.272 | 0.858
298.15 K, 101.33 kPa, x1 = 0.5 | 0.8551
298.15 K, 101.33 kPa, x1 = 0.5295 | 0.8568
298.15 K, 101.33 kPa, x1 = 0.625 | 0.8594
298.15 K, 101.33 kPa, x1 = 0.7707 | 0.867
318 K, 101.3 kPa, x1 = 0.1636 | 0.6445
318 K, 101.3 kPa, x1 = 0.3244 | 0.6522
318 K, 101.3 kPa, x1 = 0.5293 | 0.667
318 K, 101.3 kPa, x1 = 0.6744 | 0.6869
318 K, 101.3 kPa, x1 = 0.8658 | 0.7148

Cc1ccccc1C(=O)O + O=C1CCCCCN1
101 kPa, x2 = 0.67
Settings | viscosity [mPa·s]
303.2 K | 108.3
313.1 K | 58.33
323.1 K | 34.26

ClC(Cl)(Cl)Cl + CCCC(=O)OCC
101.33 kPa
Settings | viscosity [mPa·s]
303.15 K, x1 = 0.061 | 0.606
303.15 K, x1 = 0.1443 | 0.621
303.15 K, x1 = 0.2812 | 0.648
303.15 K, x1 = 0.3929 | 0.672
303.15 K, x1 = 0.5226 | 0.699
303.15 K, x1 = 0.5625 | 0.708
303.15 K, x1 = 0.6324 | 0.726
303.15 K, x1 = 0.7331 | 0.748
303.15 K, x1 = 0.8278 | 0.778
303.15 K, x1 = 0.8866 | 0.798
303.15 K, x1 = 0.9455 | 0.819
313.15 K, x1 = 0.2056 | 0.586
313.15 K, x1 = 0.4083 | 0.615
313.15 K, x1 = 0.5058 | 0.631
313.15 K, x1 = 0.6059 | 0.647
313.15 K, x1 = 0.799 | 0.69
